The test system of this test is Beet Armyworm (Spodoptera exigua). Briefly: Bioassay on Beet Armyworm (BAW), 128-well diet tray assay. The format is in vivo. The settings on record: percent mortality of second instar larvae, 50 μg/cm^2 on artificial diet, five to seven days, 25° C.; Table 3. As for the experimental part:
Certain molecules disclosed in this document were tested against BAW and CEW and CL using procedures described in the following examples. In the reporting of the results, the “BAW & CEW & CL Rating Table” was used (See Table Section).
Bioassays on BAW (Spodoptera exigua)
Bioassays on BAW were conducted using a 128-well diet tray assay. one to five second instar BAW larvae were placed in each well (3 mL) of the diet tray that had been previously filled with 1 mL of artificial diet to which 50 μg/cm^2 of the test compound (dissolved in 50 μL of 90:10 acetone-water mixture) had been applied (to each of eight wells) and then allowed to dry. Trays were covered with a clear self-adhesive cover, and held at 25° C., 14:10 light-dark for five to seven days. Percent mortality was recorded for the larvae in each well; activity in the eight wells was then averaged. The results are indicated in the table entitled “Table 3: Assay Results” (See Table Section).

In the case of `O=C(CC(F)(F)F)NCC(=O)n1ccc2cc(/C=C/C(c3cc(Cl)c(F)c(Cl)c3)C(F)(F)F)ccc21` (stereo not shown) [BC13, (E)-N-(2-(5-(3-(3,5-Dichloro-4-fluorophenyl)-4,4,4-trifluorobut-1-en-1-yl)-1H-indol-1-yl)-2-oxoethyl)-3,3,3-trifluoropropanamide], the “BAW Rating” value is on record as “A (50-100)”.

For `O=C(Cn1ncc2cc(/C=C/C(c3cc(Cl)c(F)c(Cl)c3)C(F)(F)F)ccc2c1=O)NCC(F)(F)F` (stereo not shown) [BC14, (E)-2-(6-(3-(3,5-Dichloro-4-fluorophenyl)-4,4,4-trifluorobut-1-en-1-yl)-1-oxophthalazin-2(1H)-yl)-N-(2,2,2-trifluoroethyl)acetamide], the “BAW Rating” value was “A (50-100)”. In the case of `O=C(NCc1ccc(/C=C/C(c2cc(Cl)cc(Cl)c2)C(F)(F)F)cc1)C1CC1` (stereo not shown) [CC2] it was “A (50-100)”; in that of `O=C(CC(F)(F)F)NCc1ccc(/C=C/C(c2cc(Cl)cc(Cl)c2)C(F)(F)F)cc1` (stereo not shown) [CC3], “A (50-100)”.

For `CCC(=O)NCc1ccc(/C=C/C(c2cc(Cl)cc(Cl)c2)C(F)(F)F)cc1` (stereo not shown) [CC4], the “BAW Rating” value is “A (50-100)”. For the molecule `O=C(NCc1ccc(/C=C/C(c2cc(Cl)c(Cl)c(Cl)c2)C(F)(F)F)cc1)C1CC1` (stereo not shown) [CC5], the “BAW Rating” value is listed as “A (50-100)”.

For `O=C(CC(F)(F)F)NCc1ccc(/C=C/C(c2cc(Cl)c(Cl)c(Cl)c2)C(F)(F)F)cc1` (stereo not shown) [CC6], the “BAW Rating” value is listed as “A (50-100)”. In the case of `CC(=O)NCc1ccc(/C=C/C(c2cc(Cl)cc(Cl)c2)C(F)(F)F)cc1Cl` (stereo not shown) [CC7, (E)-N-(2-Chloro-4-(3-(3,5-dichlorophenyl)-4,4,4-trifluorobut-1-en-1-yl)benzyl)acetamide] it was “A (50-100)”; in that of `O=C(NCc1ccc(/C=C/C(c2cc(Cl)cc(Cl)c2)C(F)(F)F)cc1Cl)C1CC1` (stereo not shown) [CC8], “A (50-100)”. The entry for `O=C(CC(F)(F)F)NCc1ccc(/C=C/C(c2cc(Cl)cc(Cl)c2)C(F)(F)F)cc1Cl` (stereo not shown) [CC9] is “A (50-100)”.

On to `O=C(NCc1ccc(/C=C/C(c2cc(Cl)c(Cl)c(Cl)c2)C(F)(F)F)cc1Cl)C1CC1` (stereo not shown) [CC11], for which the “BAW Rating” value is “A (50-100)”.

As to `O=C(Cc1ccc(Cl)nc1)NCc1ccc(/C=C/C(c2cc(Cl)c(Cl)c(Cl)c2)C(F)(F)F)cc1Cl` (stereo not shown) [CC14], the “BAW Rating” value is recorded as “A (50-100)”.

For the molecule `O=C(NCc1ccc(/C=C/C(c2cc(Cl)c(F)c(Cl)c2)C(F)(F)F)cc1Cl)C1CC1` (stereo not shown) [CC15], the “BAW Rating” value is “A (50-100)”.

In the case of `O=C(NCc1ccc(/C=C/C(c2ccc(Cl)c(Cl)c2)C(F)(F)F)cc1Cl)C1CC1` (stereo not shown) [CC17], the “BAW Rating” value is on record as “A (50-100)”. In the case of `O=C(CC(F)(F)F)NCc1ccc(/C=C/C(c2ccc(Cl)c(Cl)c2)C(F)(F)F)cc1Cl` (stereo not shown) [CC18] it was “A (50-100)”. On to `CSCCC(=O)NCc1ccc(/C=C/C(c2cc(Cl)c(Cl)c(Cl)c2)C(F)(F)F)cc1Cl` (stereo not shown) [CC19], for which the “BAW Rating” value was “A (50-100)”. In the case of `FC(F)(F)C(/C=C/c1ccc(CNC(=S)C2CC2)c(Cl)c1)c1cc(Cl)c(Cl)c(Cl)c1` (stereo not shown) [CC20] it was “A (50-100)”; in that of `O=C(NCc1ccc(/C=C/C(c2cc(Cl)cc(Cl)c2)C(F)(F)F)cc1C(F)(F)F)C1CC1` (stereo not shown) [CC21], “A (50-100)”; in that of `O=C(NCc1ccc(/C=C/C(c2cc(Cl)c(Cl)c(Cl)c2)C(F)(F)F)cc1C(F)(F)F)C1CC1` (stereo not shown) [CC22], “A (50-100)”.

Turning to `O=C(NCc1ccc(/C=C/C(c2cc(Cl)c(Cl)c(Cl)c2)C(F)(F)F)cc1C(F)(F)F)c1cccnc1` (stereo not shown) [CC23], the “BAW Rating” value is “A (50-100)”.

For the molecule `O=C(CC(F)(F)F)NCc1ccc(/C=C/C(c2cc(Cl)c(Cl)c(Cl)c2)C(F)(F)F)cc1C(F)(F)F` (stereo not shown) [CC24], the “BAW Rating” value is “A (50-100)”.

Turning to `O=C(CC(F)(F)F)NCc1ccc(/C=C/C(c2cc(Cl)c(Cl)c(Cl)c2)C(F)(F)F)cc1Br` (stereo not shown) [CC25], the “BAW Rating” value is “A (50-100)”. In the case of `O=C(NCc1ccc(/C=C/C(c2cc(Cl)c(Cl)c(Cl)c2)C(F)(F)F)cc1Br)C1CC1` (stereo not shown) [CC26] it was “A (50-100)”; in that of `O=C(CC(F)(F)F)NCc1ccc(/C=C/C(c2cc(Cl)c(Cl)c(Cl)c2)C(F)(F)F)cc1F` (stereo not shown) [CC27], “A (50-100)”. In the case of `O=C(NCc1ccc(/C=C/C(c2cc(Cl)c(Cl)c(Cl)c2)C(F)(F)F)cc1F)C1CC1` (stereo not shown) [CC28] it was “A (50-100)”; in that of `O=C(C1CC1)N(Cc1ccccn1)Cc1ccc(/C=C/C(c2cc(Cl)c(Cl)c(Cl)c2)C(F)(F)F)cc1C(F)(F)F` (stereo not shown) [CC29, (E)-N-(Pyridin-2-ylmethyl)-N-(4-(4,4,4-trifluoro-3-(3,4,5-trichlorophenyl)but-1-enyl)-2-(trifluoromethyl)benzyl)cyclopropanecarboxamide], “A (50-100)”.

On to `CS(=O)(=O)CCC(=O)NCc1ccc(/C=C/C(c2cc(Cl)c(Cl)c(Cl)c2)C(F)(F)F)cc1Cl` (stereo not shown) [CC30, (E)-N-(2-Chloro-4-(4,4,4-trifluoro-3-(3,4,5-trichlorophenyl)but-1-en-1-yl)benzyl)-3-(methylsulfonyl)propanamide], for which the “BAW Rating” value is listed as “A (50-100)”. The entry for `CCNC(=O)NCc1ccc(/C=C/C(c2cc(Cl)cc(Cl)c2)C(F)(F)F)cc1Cl` (stereo not shown) [CC31, (E)-1-(2-Chloro-4-(3-(3,5-dichlorophenyl)-4,4,4-trifluorobut-1-en-1-yl)benzyl)-3-ethylurea] is “B (More than 0-Less than 50)”; for `CCNC(=O)NCc1ccc(/C=C/C(c2cc(Cl)c(Cl)c(Cl)c2)C(F)(F)F)cc1C(F)(F)F` (stereo not shown) [CC32] it is “A (50-100)”; for `CCNC(=O)NCc1ccc(/C=C/C(c2cc(Cl)c(Cl)c(Cl)c2)C(F)(F)F)cc1Br` (stereo not shown) [CC33] it is “A (50-100)”. In the case of `O=C(NCc1ccc(/C=C/C(c2cc(Cl)c(Cl)c(Cl)c2)C(F)(F)F)cc1Cl)N1CCOCC1` (stereo not shown) [CC34] it was “A (50-100)”; in that of `CN(C)C(=O)NCc1ccc(/C=C/C(c2cc(Cl)c(Cl)c(Cl)c2)C(F)(F)F)cc1Cl` (stereo not shown) [CC36, (E)-3-(2-Chloro-4-(4,4,4-trifluoro-3-(3,4,5-trichlorophenyl)but-1-en-1-yl)benzyl)-1,1-dimethylurea], “A (50-100)”. The entry for `CCNC(=S)NCc1ccc(/C=C/C(c2cc(Cl)c(Cl)c(Cl)c2)C(F)(F)F)cc1Cl` (stereo not shown) [CC37, (E)-1-(2-Chloro-4-(4,4,4-trifluoro-3-(3,4,5-trichlorophenyl)but-1-en-1-yl)benzyl)-3-ethylthiourea] is “A (50-100)”; for `C=CCNC(=S)NCc1ccc(/C=C/C(c2cc(Cl)c(Cl)c(Cl)c2)C(F)(F)F)cc1Cl` (stereo not shown) [CC38] it is “A (50-100)”. As for `FC(F)(F)C(/C=C/c1ccc(CNc2ccccn2)c(Cl)c1)c1cc(Cl)c(Cl)c(Cl)c1` (stereo not shown) [CC43, (E)-N-(2-Chloro-4-(4,4,4-trifluoro-3-(3,4,5-trichlorophenyl)but-1-en-1-yl)benzyl)pyridin-2-amine], the “BAW Rating” value was “A (50-100)”. In the case of `O=C(CC(F)(F)F)NCc1ncc(/C=C/C(c2cc(Cl)c(Cl)c(Cl)c2)C(F)(F)F)cc1Cl` (stereo not shown) [CC44, (E)-N-((3-Chloro-5-(4,4,4-trifluoro-3-(3,4,5-trichlorophenyl)-but-1-en-1-yl)pyridin-2-yl)methyl)-3,3,3-trifluoropropanamide] it was “A (50-100)”; in that of `O=C(NCc1ncc(/C=C/C(c2cc(Cl)c(Cl)c(Cl)c2)C(F)(F)F)cc1Cl)C1CC1` (stereo not shown) [CC45], “A (50-100)”; in that of `O=C(NNc1ccc(/C=C/C(c2cc(Cl)c(Cl)c(Cl)c2)C(F)(F)F)cc1)C1CC1` (stereo not shown) [CC50, (E)-N′-(4-(4,4,4-Trifluoro-3-(3,4,5-trichlorophenyl)but-1-en-1-yl)phenyl)cyclopropanecarbohydrazide], “A (50-100)”. The entry for `O=C(CC(F)(F)F)NNc1ccc(/C=C/C(c2cc(Cl)c(Cl)c(Cl)c2)C(F)(F)F)cc1` (stereo not shown) [CC51] is “A (50-100)”. In the case of `O=C(NOc1ccc(/C=C/C(c2cc(Cl)c(Cl)c(Cl)c2)C(F)(F)F)cc1)C1CC1` (stereo not shown) [CC52, (E)-N-(4-(4,4,4-Trifluoro-3-(3,4,5-trichlorophenyl)but-1-en-1-yl)phenoxy)cyclopropanecarboxamide] it was “A (50-100)”; in that of `O=C(CC(F)(F)F)NCc1ccc(/C=C\C(c2cc(Cl)c(Cl)c(Cl)c2)C(F)(F)F)cc1` (stereo not shown) [CC54, (Z)-3,3,3-Trifluoro-N-(4-(4,4,4-trifluoro-3-(3,4,5-trichlorophenyl)but-1-en-1-yl)benzyl)propanamide], “A (50-100)”; in that of `FC(F)(F)C(/C=C/c1ccc(-n2cncn2)cc1)c1cc(Cl)cc(Cl)c1` (stereo not shown) [DC1, (E)-1-(4-(3-(3,5-Dichlorophenyl)-4,4,4-trifluorobut-1-en-1-yl)phenyl)-1H-1,2,4-triazole], “A (50-100)”. Regarding `FC(F)(F)C(/C=C/c1ccc(-n2cncn2)cc1)c1ccccc1` (stereo not shown) [DC3], the “BAW Rating” value is listed as “B (More than 0-Less than 50)”. In the case of `FC(F)(F)C(/C=C/c1ccc(-n2cncn2)cc1)c1ccc(Cl)cc1` (stereo not shown) [DC4], the “BAW Rating” value is “A (50-100)”. The entry for `Fc1ccc(C(/C=C/c2ccc(-n3cncn3)cc2)C(F)(F)F)cc1` (stereo not shown) [DC7] is “A (50-100)”; for `Fc1cc(F)cc(C(/C=C/c2ccc(-n3cncn3)cc2)C(F)(F)F)c1` (stereo not shown) [DC8] it is “A (50-100)”; for `Cc1cc(C)cc(C(/C=C/c2ccc(-n3cncn3)cc2)C(F)(F)F)c1` (stereo not shown) [DC11] it is “A (50-100)”. In the case of `FC(F)(F)C(/C=C/c1ccc(-n2cncn2)cc1)c1ccc(Cl)c(Cl)c1` (stereo not shown) [DC12] it was “A (50-100)”; in that of `FC(F)(F)c1cc(C(/C=C/c2ccc(-n3cncn3)cc2)C(F)(F)F)cc(C(F)(F)F)c1` (stereo not shown) [DC16], “A (50-100)”.

(Values after patent publication US9510592B2, “Pesticidal compositions and processes related thereto” (Dow AgroSciences LLC, priority 2012, dated 2016).)
